Source: US4550186A, “Binuclear copper (II) carboxylates formed from amine-carboxyboranes” (Duke University, priority 1983, dated 1985)

Columns and labels:
[1] = system: Cholesterol Side Chain Oxidation; assay: In vitro liver enzyme study: cholesterol side chain oxidation; assay type: biochemical, mouse
Description: In vitro enzymatic studies were determined using 10% homogenates of CF1 male mouse liver with 50-200 μM of test drugs. In vivo enzymatic studies were determined using 10% homogenates of liver from CF1 male mice obtained after administering the agents for 16 days at a dose ranging from 2.5-20 mg/kg/day intraperitoneally. The liver homogenates for both in vitro and in vivo studies were prepared in 0.25M sucrose and 0.001M (ethylenedinitrilo)tetraacetic acid. Acetyl coenzyme A synthetase and adenosine triphosphate dependent citrate lyase activities were determined spectrophotometrically at 540 nm as the hydroxylamate of acetyl coenzyme A formed after 30 min at 37° C. Mitochondrial citrate exchange was determined by the procedure of Robinson et al [Eur. J. Biochem., 216, 63 (1970)] using ^14 C-sodium bicarbonate (41 mCi/mmol) incorporated into mitochondrial ^14 C-citrate after isolating rat mitochondria (9000 g×10 min) from the homogenates. The exchanges of the ^14 C-citrate were determined after incubating the mitochondrial fraction which was loaded with labeled citrate and test drugs for 10 min. Then the radioactivity was measured in the mitochondrial and supernantant fractions in scintillation fluid and expressed as a percentage. […] Acyl transferase activity was determined with glycerol-3phosphate [L-2-^3 H(N)] […] HCl and counted. […]

[2] = target: T1, ATP Dependent Citrate Lyase (Mus musculus, UniProt Q91V92); assay: In vitro liver enzyme study: ATP dependent citrate lyase; assay type: biochemical; details: in vitro CF1 liver, 30 min
T1 construct: 10% homogenates of CF1 male mouse liver; from tissue; host or cells: CF1 male mouse liver, 10% homogenate
T1 sequence (Q91V92 1-1091): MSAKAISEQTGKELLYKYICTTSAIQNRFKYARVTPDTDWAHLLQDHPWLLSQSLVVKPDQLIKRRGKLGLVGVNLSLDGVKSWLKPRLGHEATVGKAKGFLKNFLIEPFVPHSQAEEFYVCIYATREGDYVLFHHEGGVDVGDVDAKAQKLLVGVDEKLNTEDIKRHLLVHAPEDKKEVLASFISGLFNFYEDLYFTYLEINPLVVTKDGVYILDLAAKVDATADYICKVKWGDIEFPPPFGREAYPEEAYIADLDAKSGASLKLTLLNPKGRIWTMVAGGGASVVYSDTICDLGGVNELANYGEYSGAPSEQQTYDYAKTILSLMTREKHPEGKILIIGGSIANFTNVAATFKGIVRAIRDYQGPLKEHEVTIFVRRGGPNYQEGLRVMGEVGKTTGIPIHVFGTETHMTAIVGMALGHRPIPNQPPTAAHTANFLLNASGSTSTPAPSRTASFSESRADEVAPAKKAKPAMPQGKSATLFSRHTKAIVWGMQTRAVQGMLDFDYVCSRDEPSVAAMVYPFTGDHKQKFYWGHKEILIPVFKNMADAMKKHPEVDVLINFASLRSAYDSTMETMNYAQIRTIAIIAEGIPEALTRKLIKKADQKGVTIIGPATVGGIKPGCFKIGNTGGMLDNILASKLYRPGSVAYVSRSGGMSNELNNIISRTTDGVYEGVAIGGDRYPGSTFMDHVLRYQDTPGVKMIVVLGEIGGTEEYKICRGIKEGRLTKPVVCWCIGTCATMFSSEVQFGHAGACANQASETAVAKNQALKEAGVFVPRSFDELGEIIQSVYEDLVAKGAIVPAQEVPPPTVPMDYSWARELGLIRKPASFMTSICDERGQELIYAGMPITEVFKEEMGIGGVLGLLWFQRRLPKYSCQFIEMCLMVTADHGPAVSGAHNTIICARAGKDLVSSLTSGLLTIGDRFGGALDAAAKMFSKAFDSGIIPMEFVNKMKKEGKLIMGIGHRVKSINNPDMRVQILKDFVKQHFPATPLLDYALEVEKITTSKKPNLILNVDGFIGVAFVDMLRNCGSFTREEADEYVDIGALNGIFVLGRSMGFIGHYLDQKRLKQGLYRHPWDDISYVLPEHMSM
Description: In vitro enzymatic studies were determined using 10% homogenates of CF1 male mouse liver with 50-200 μM of test drugs. In vivo enzymatic studies were determined using 10% homogenates of liver from CF1 male mice obtained after administering the agents for 16 days at a dose ranging from 2.5-20 mg/kg/day intraperitoneally. The liver homogenates for both in vitro and in vivo studies were prepared in 0.25M sucrose and 0.001M (ethylenedinitrilo)tetraacetic acid. Acetyl coenzyme A synthetase and adenosine triphosphate dependent citrate lyase activities were determined spectrophotometrically at 540 nm as the hydroxylamate of acetyl coenzyme A formed after 30 min at 37° C. Mitochondrial citrate exchange was determined by the procedure of Robinson et al [Eur. J. Biochem., 216, 63 (1970)] using ^14 C-sodium bicarbonate (41 mCi/mmol) incorporated into mitochondrial ^14 C-citrate after isolating rat mitochondria (9000 g×10 min) from the homogenates. The exchanges of the ^14 C-citrate were determined after incubating the mitochondrial fraction which was loaded with labeled citrate and test drugs for 10 min. Then the radioactivity was measured in the mitochondrial and supernantant fractions in scintillation fluid and expressed as a percentage. Cholesterol side chain oxidation was determined by the method of Kritchevsky and Tepper [Artherosclerosis, 18, 93 (1973)] using (26-^14 C) cholesterol (50 mCi/mmol) and mitochondria isolated from rat liver homogenates. […] Fatty acid synthetase activity was determined by the method of Brady et al [J. Biol. Chem., 235, 3093 (1960)] using [2-^14 C] malonyl-coenzyme A (37.5 mCi/mmol) which was incorporated into newly synthesized fatty acids that were extracted with ether and counted. Acyl transferase activity was determined with glycerol-3phosphate [L-2-^3 H(N)] […] HCl and counted. Phosphatidate phosphohydrolase activity was measured as the inorganic phosphate released after 30 min from phosphatidic acid by the method of Mavis et al [J. Lipid Res., 19, 467 (1978)]. […]

**Q.** What does the source list for “{Cu[(CH3)3 N.BH2 CO2 ]2.(CH3)3 N.BH2 COOH} [Compound I]”?
**A.** Cholesterol Side Chain Oxidation ([1]; in vitro CF1 liver, 100 μM): 152 ± 7 Percent Control; degradation of cholesterol by oxidation of the side chain accelerated ([1]; in vitro, in the presence of drug): 52%; ATP Dependent Citrate Lyase ([2]; 50 μM): 110 ± 6 Percent Control; ATP Dependent Citrate Lyase ([2]; 100 μM): 98 ± 5 Percent Control; ATP Dependent Citrate Lyase ([2]; 200 μM): 105 ± 7 Percent Control
